Measured values taken from ChEMBL document CHEMBL5126592, “Design, synthesis and activity against drug-resistant bacteria evaluation of C-20, C-23 modified 5-O-mycaminosyltylonolide derivatives” (Eur J Med Chem, 2022).
In brackets after ≈: the same amount, converted by molar mass. Blank lines part the entries; values can stand above or below the compound they belong to. Activity calls are given as the source filed them. The rule behind the calls is not given here.

Tests used:
Klebsiella pneumoniae = assay: Antibacterial activity against Klebsiella pneumoniae ATCC 13883 incubated for 16 to 20 hrs by broth microdilution method; type: functional; settings: time 16-20 hrs
Staphylococcus aureus [1] = assay: Antibacterial activity against Staphylococcus aureus ATCC 25923 incubated for 16 to 20 hrs by broth microdilution method; type: functional; settings: time 16-20 hrs
[2] = tested on: Streptococcus dysgalactiae; assay: Antibacterial activity against Streptococcus dysgalactiae incubated for 16 to 20 hrs by broth microdilution method; type: functional; settings: time 16-20 hrs
Cronobacter sakazakii = assay: Antibacterial activity against Cronobacter sakazakii ATCC 29544 incubated for 16 to 20 hrs by broth microdilution method; type: functional; settings: time 16-20 hrs
Staphylococcus aureus [3] = assay: Antibacterial activity against Staphylococcus aureus incubated for 16 to 20 hrs by broth microdilution method; type: functional; settings: time 16-20 hrs
Escherichia coli [4] = assay: Antibacterial activity against Escherichia coli ATCC 25922 incubated for 16 to 20 hrs by broth microdilution method; type: functional; settings: time 16-20 hrs
Pseudomonas aeruginosa = assay: Antibacterial activity against Pseudomonas aeruginosa LTP-3 incubated for 16 to 20 hrs by broth microdilution method; type: functional; settings: time 16-20 hrs
Enterococcus faecium = assay: Antibacterial activity against Enterococcus faecium incubated for 16 to 20 hrs by broth microdilution method; type: functional; settings: time 16-20 hrs
Escherichia coli [5] = assay: Antibacterial activity against Escherichia coli incubated for 16 to 20 hrs by broth microdilution method; type: functional; settings: time 16-20 hrs
[6] = tested on: Staphylococcus chromogenes; assay: Antibacterial activity against Staphylococcus chromogenes incubated for 16 to 20 hrs by broth microdilution method; type: functional; settings: time 16-20 hrs
Escherichia coli [7] = assay: Antibacterial activity against Escherichia coli ATCC 25922 incubated for 16 to 20 hrs using 10^7 CFU/ml bacterial inoculum by broth microdilution method; type: functional; settings: time 16-20 hrs
Staphylococcus aureus [8] = assay: Antibacterial activity against Staphylococcus aureus ATCC 29213 incubated for 16 to 20 hrs using 10^6 CFU/ml bacterial inoculum by broth microdilution method; type: functional; settings: time 16-20 hrs
Escherichia coli [9] = assay: Antibacterial activity against Escherichia coli ATCC 25922 incubated for 16 to 20 hrs in presence of 10% foetal bovine serum by broth microdilution method; type: functional; settings: time 16-20 hrs
Staphylococcus aureus [10] = assay: Antibacterial activity against Staphylococcus aureus ATCC 29213 incubated for 16 to 20 hrs using 10^3 CFU/ml bacterial inoculum by broth microdilution method; type: functional; settings: time 16-20 hrs
Escherichia coli [11] = assay: Antibacterial activity against Escherichia coli ATCC 25922 incubated for 16 to 20 hrs using 10^3 CFU/ml bacterial inoculum by broth microdilution method; type: functional; settings: time 16-20 hrs
Staphylococcus aureus [12] = assay: Ratio of MBC to MIC for Staphylococcus aureus ATCC 29213; type: functional
Staphylococcus aureus [13] = assay: Antibacterial activity against Staphylococcus aureus ATCC 29213 at pH 8.6 incubated for 16 to 20 hrs in absence of foetal bovine serum by broth microdilution method; type: functional; settings: time 16-20 hrs
Escherichia coli [14] = assay: Antibacterial activity against Escherichia coli ATCC 25922 incubated for 16 to 20 hrs in presence of 25% foetal bovine serum by broth microdilution method; type: functional; settings: time 16-20 hrs
Escherichia coli [15] = assay: Antibacterial activity against Escherichia coli ATCC 25922 incubated for 16 to 20 hrs using 10^5 CFU/ml bacterial inoculum by broth microdilution method; type: functional; settings: time 16-20 hrs
Escherichia coli [16] = assay: Antibacterial activity against Escherichia coli ATCC 25922 incubated for 16 to 20 hrs using 10^4 CFU/ml bacterial inoculum by broth microdilution method; type: functional; settings: time 16-20 hrs
Escherichia coli [17] = assay: Ratio of MBC to MIC for Escherichia coli ATCC 25922; type: functional
Escherichia coli [18] = assay: Bactericidal activity against Escherichia coli ATCC 25922 incubated for 20 to 24 hrs by CLSI based analysis; type: functional; settings: time 20-24 hrs
Staphylococcus aureus [19] = assay: Antibacterial activity against Staphylococcus aureus ATCC 29213 incubated for 16 to 20 hrs using 10^7 CFU/ml bacterial inoculum by broth microdilution method; type: functional; settings: time 16-20 hrs
Staphylococcus aureus [20] = assay: Bactericidal activity against Staphylococcus aureus ATCC 29213 incubated for 20 to 24 hrs by CLSI based analysis; type: functional; settings: time 20-24 hrs
Staphylococcus aureus [21] = assay: Antibacterial activity against Staphylococcus aureus ATCC 29213 at pH 8.6 incubated for 16 to 20 hrs in presence of 10% foetal bovine serum by broth microdilution method; type: functional; settings: time 16-20 hrs
Staphylococcus aureus [22] = assay: Antibacterial activity against Staphylococcus aureus ATCC 29213 incubated for 16 to 20 hrs by broth microdilution method; type: functional; settings: time 16-20 hrs
Staphylococcus aureus [23] = assay: Antibacterial activity against Staphylococcus aureus ATCC 29213 at pH 8.6 incubated for 16 to 20 hrs in presence of 25% foetal bovine serum by broth microdilution method; type: functional; settings: time 16-20 hrs
Staphylococcus aureus [24] = assay: Antibacterial activity against Staphylococcus aureus ATCC 29213 incubated for 16 to 20 hrs using 10^5 CFU/ml bacterial inoculum by broth microdilution method; type: functional; settings: time 16-20 hrs
Staphylococcus aureus [25] = assay: Antibacterial activity against Staphylococcus aureus ATCC 29213 incubated for 16 to 20 hrs using 10^4 CFU/ml bacterial inoculum by broth microdilution method; type: functional; settings: time 16-20 hrs
Staphylococcus aureus [26] = assay: Antibacterial activity against Staphylococcus aureus ATCC 29213 at pH 8.6 incubated for 16 to 20 hrs in presence of 5% foetal bovine serum by broth microdilution method; type: functional; settings: time 16-20 hrs
Escherichia coli [27] = assay: Antibacterial activity against Escherichia coli ATCC 25922 incubated for 16 to 20 hrs in absence of foetal bovine serum by broth microdilution method; type: functional; settings: time 16-20 hrs
Escherichia coli [28] = assay: Antibacterial activity against Escherichia coli ATCC 25922 incubated for 16 to 20 hrs in presence of 5% foetal bovine serum by broth microdilution method; type: functional; settings: time 16-20 hrs
Escherichia coli [29] = assay: Antibacterial activity against Escherichia coli ATCC 25922 incubated for 16 to 20 hrs in presence of 50% foetal bovine serum by broth microdilution method; type: functional; settings: time 16-20 hrs
Staphylococcus aureus [30] = assay: Antibacterial activity against Staphylococcus aureus ATCC 25923 infected in kunming mouse assessed as reduction in viable pathogens at 32.5 mg/kg, iv measured after 1 hr; type: functional, organism-based
Escherichia coli [31] = assay: Antibacterial activity against Escherichia coli ATCC 25922 incubated for 16 to 20 hrs using 10^6 CFU/ml bacterial inoculum by broth microdilution method; type: functional; settings: time 16-20 hrs
Escherichia coli [32] = assay: Inhibition of protein synthesis in Escherichia coli ATCC 25922 assessed as reduction in protein content at […] measured upto 12 hrs by microporous enzyme labeling method relative to control; type: functional
Staphylococcus aureus [33] = assay: Antibacterial activity against Staphylococcus aureus ATCC 29213 at pH 8.6 incubated for 16 to 20 hrs in presence of 50% foetal bovine serum by broth microdilution method; type: functional; settings: time 16-20 hrs

MIC (Klebsiella pneumoniae): 1 µg/mL (≈ 1.09 µM)
MIC (Staphylococcus aureus [1]): 0.125 µg/mL (≈ 0.136 µM)
MIC [2]: 0.5 µg/mL (≈ 0.546 µM)
MIC (Cronobacter sakazakii): 4 µg/mL (≈ 4.37 µM)
MIC (Staphylococcus aureus [3]): 0.5 µg/mL (≈ 0.546 µM)
MIC (Escherichia coli [4]): 2 µg/mL (≈ 2.18 µM)
MIC (Pseudomonas aeruginosa): 1 µg/mL (≈ 1.09 µM)
MIC (Enterococcus faecium): 2 µg/mL (≈ 2.18 µM)
MIC (Escherichia coli [5]): 2 µg/mL (≈ 2.18 µM)
MIC [6]: 1 µg/mL (≈ 1.09 µM)
SMILES: CC[C@H]1OC(=O)C[C@@H](O)[C@H](C)[C@@H](O[C@@H]2O[C@H](C)[C@@H](O)[C@H](N(C)C)[C@H]2O)[C@@H](CCN(C)Cc2cn(-c3cnc4ccccc4c3)nn2)C[C@@H](C)C(=O)/C=C/C(C)=C/[C@@H]1CN1CCCCCCC1

SMILES: CC[C@H]1OC(=O)C[C@@H](O)[C@H](C)[C@@H](O[C@@H]2O[C@H](C)[C@@H](O)[C@H](N(C)C)[C@H]2O)[C@@H](CC=O)C[C@@H](C)C(=O)/C=C/C(C)=C/[C@@H]1CO
MIC (Klebsiella pneumoniae): > 32 µg/mL
MIC (Staphylococcus aureus [1]): 0.5 µg/mL (≈ 0.836 µM)
MIC [2]: 1 µg/mL (≈ 1.67 µM)
MIC (Cronobacter sakazakii): > 32 µg/mL
MIC (Staphylococcus aureus [3]): 1 µg/mL (≈ 1.67 µM)
MIC (Escherichia coli [4]): > 32 µg/mL
MIC (Pseudomonas aeruginosa): 32 µg/mL (≈ 53.5 µM)
MIC (Enterococcus faecium): 1 µg/mL (≈ 1.67 µM)
MIC (Escherichia coli [5]): > 32 µg/mL
MIC [6]: 1 µg/mL (≈ 1.67 µM)

SMILES: CC[C@H]1OC(=O)C[C@@H](O)[C@H](C)[C@@H](O[C@@H]2O[C@H](C)[C@@H](O)[C@H](N(C)C)[C@H]2O)[C@@H](CCN2CCCCC2)C[C@@H](C)C(=O)/C=C/C(C)=C/[C@@H]1CN1CCCCC1 [TILDIPIROSIN]
MIC (Escherichia coli [7]): 2 µg/mL (≈ 2.72 µM)
MIC (Staphylococcus aureus [8]): 4 µg/mL (≈ 5.45 µM)
MIC (Escherichia coli [9]): 2 µg/mL
MIC (Staphylococcus aureus [10]): 0.5 µg/mL (≈ 0.681 µM)
MIC (Escherichia coli [11]): 0.5 µg/mL (≈ 0.681 µM)
MIC (Klebsiella pneumoniae): 8 µg/mL (≈ 10.9 µM)
Ratio (Staphylococcus aureus [12]): >2
MIC (Staphylococcus aureus [1]): 16 µg/mL (≈ 21.8 µM)
MIC [2]: 32 µg/mL (≈ 43.6 µM)
MIC (Staphylococcus aureus [13]): 4 µg/mL (≈ 5.45 µM)
MIC (Cronobacter sakazakii): 16 µg/mL (≈ 21.8 µM)
MIC (Escherichia coli [14]): 4 µg/mL
MIC (Staphylococcus aureus [3]): 32 µg/mL (≈ 43.6 µM)
MIC (Escherichia coli [15]): 1 µg/mL (≈ 1.36 µM)
MIC (Escherichia coli [16]): 1 µg/mL (≈ 1.36 µM)
Ratio (Escherichia coli [17]): 4
MBC (Escherichia coli [18]): 4 µg/mL (≈ 5.45 µM)
MIC (Staphylococcus aureus [19]): 4 µg/mL (≈ 5.45 µM)
MBC (Staphylococcus aureus [20]): > 32 µg/mL
MIC (Staphylococcus aureus [21]): 8 µg/mL
MIC (Escherichia coli [4]): 1 µg/mL (≈ 1.36 µM)
MIC (Staphylococcus aureus [22]): 16 µg/mL (≈ 21.8 µM)
MIC (Pseudomonas aeruginosa): 4 µg/mL (≈ 5.45 µM)
MIC (Staphylococcus aureus [23]): 16 µg/mL
MIC (Staphylococcus aureus [24]): 2 µg/mL (≈ 2.72 µM)
MIC (Staphylococcus aureus [25]): 1 µg/mL (≈ 1.36 µM)
MIC (Staphylococcus aureus [26]): 4 µg/mL
MIC (Escherichia coli [27]): 2 µg/mL (≈ 2.72 µM)
MIC (Enterococcus faecium): 32 µg/mL (≈ 43.6 µM)
MIC (Escherichia coli [28]): 2 µg/mL
MIC (Escherichia coli [29]): 4 µg/mL
Activity (Staphylococcus aureus [30]): Active
MIC (Escherichia coli [5]): 16 µg/mL (≈ 21.8 µM)
MIC [6]: 16 µg/mL (≈ 21.8 µM)
MIC (Escherichia coli [31]): 2 µg/mL (≈ 2.72 µM)
inhibition (Escherichia coli [32]): 26.5%
MIC (Staphylococcus aureus [33]): 16 µg/mL
